Test results reported in patent US20080118918A1, “Compositions and Methods For Determining and Predicting Treatment Responses For Depression and Anxiety” (THE REGENTS of the University of California, priority 2004, published 2008).

Experiments:
[1] = test system: CNS CRH gene expression; settings: in vivo; cited from earlier work
[2] = test system: depressed Mexican-Americans; assay: prospective randomized, placebo lead-in, double-blind treatment of fluoxetine or desipramine for eight weeks; HAM-A and HAM-D changes stratified by CRHR1 GAG haplotype; format: in vivo, human; settings: fluoxetine 10 mg-40 mg/day vs desipramine 50 mg-200 mg/day, 8 weeks
Source text: The primary outcome measures of the association analysis were the changes in the Hamilton rating scales for anxiety (HAM-A) and depression (HAM-D).
All patients were followed weekly and assessed for changes in the Hamilton rating scales for anxiety (HAM-A) and depression (HAM-D). Inclusion criteria in the study included a HAM-D of 18 or higher. Patients were classified into a high anxiety (HA) group if their HAM-A score was 18 or higher and in a low anxiety (LA) group if their HAM-A score was less than 18.
The study population consisted of 233 depressed subjects enrolled in an ongoing pharmacogenetic study of antidepressant treatment response to desipramine or fluoxetine. Data from the first 80 subjects who completed the protocol and for whom we had available genetic data are reported herein. […] All patients are Mexican-American men and women ages 21-68, with a current episode of major depression as diagnosed by the DSM-IV. In this study, all Mexican-American subjects had at least three grandparents born in Mexico. […]
Eighty subjects were divided into a low anxiety group (LA) with HAM-A score less than 18 at screening and a high anxiety group (HA), with HAM-A scores that were 18 or higher at screening. […] Demographics of the LA group and HA group were assessed for homogeneity using χ^2 or t-tests, as appropriate.

Row | SMILES | effects on downregulating CNS CRH gene expression [1] | antidepressant effectiveness, comparison of the two drugs [2]
1 | CNCCCN1c2ccccc2CCc2ccccc21 [desipramine] | equal effects on downregulating CNS CRH gene expression | no differences between the two drugs in terms of antidepressant effectiveness have been observed
2 | CNCCC(Oc1ccc(C(F)(F)F)cc1)c1ccccc1 (stereo not shown) [fluoxetine] | equal effects on downregulating CNS CRH gene expression | no differences between the two drugs in terms of antidepressant effectiveness have been observed
